Test results as given in PubChem BioAssay (NCI).
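Protocol summary: plate cells (96-well), add compound at 5 concentrations, incubate 48 h, interpolate endpoints linearly. The concentration for 50% growth inhibition is given as GI50. The concentration for full growth arrest is given as TGI.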

Tests used:
Assay in all cases: NCI-60 cell line screen, 48 h
[1] = tested on: RXF 393 renal
[2] = tested on: UACC-257 melanoma
[3] = tested on: ACHN renal
[4] = tested on: NCI-H23 lung
[5] = tested on: KM12 colon
[6] = tested on: HOP-62 NSCLC
[7] = tested on: MALME-3M melanoma
[8] = tested on: A498 renal
[9] = tested on: SR leukemia
[10] = tested on: PC-3 prostate
[11] = tested on: UO-31 renal
[12] = tested on: TK-10 renal
[13] = tested on: HL-60(TB) leukemia
[14] = tested on: DU-145 prostate
[15] = tested on: K-562 leukemia
[16] = tested on: HCC-2998 colon
[17] = tested on: IGROV1 ovarian
[18] = tested on: M14 melanoma
[19] = tested on: NCI-H226 lung
[20] = tested on: SK-MEL-2 melanoma
[21] = tested on: OVCAR-5 ovarian
[22] = tested on: OVCAR-4 ovarian
[23] = tested on: U251 CNS
[24] = tested on: CCRF-CEM leukemia
[25] = tested on: 786-0 renal
[26] = tested on: SF-539 CNS
[27] = tested on: CAKI-1 renal
[28] = tested on: NCI-H460 lung
[29] = tested on: UACC-62 melanoma
[30] = tested on: MOLT-4 leukemia
[31] = tested on: SNB-75 CNS
[32] = tested on: NCI/ADR-RES ovarian
[33] = tested on: SK-OV-3 ovarian
[34] = tested on: HCT-116 colon
[35] = tested on: HS 578T breast
[36] = tested on: HT29 colon
[37] = tested on: NCI-H522 lung
[38] = tested on: SF-295 CNS
[39] = tested on: MCF7 breast
[40] = tested on: HCT-15 colon
[41] = tested on: T-47D breast
[42] = tested on: MDA-MB-435
[43] = tested on: COLO 205 colon
[44] = tested on: OVCAR-8 ovarian
[45] = tested on: SW-620 colon
[46] = tested on: SNB-19 CNS
[47] = tested on: SN12C renal
[48] = tested on: OVCAR-3 ovarian
[49] = tested on: HOP-92 NSCLC
[50] = tested on: A549 NSCLC
[51] = tested on: MDA-MB-231 breast
[52] = tested on: SF-268 CNS
[53] = tested on: SK-MEL-5 melanoma
[54] = tested on: SK-MEL-28 melanoma
[55] = tested on: RPMI-8226 leukemia
[56] = tested on: LOX IMVI melanoma
[57] = tested on: BT-549 breast

CCN(Cc1ccc(Cl)s1)c1ccc(CO)c(Cl)c1
GI50 [1]: 2.1 µM | TGI [1]: 14.6 µM | GI50 [2]: 0.0898 µM | TGI [2]: 0.298 µM | GI50 [3]: 4.68 µM | TGI [3]: > 100 µM | GI50 [4]: 3.2 µM | TGI [4]: 42.1 µM | GI50 [5]: 14.7 µM | TGI [5]: 31.6 µM | GI50 [6]: 0.746 µM | TGI [6]: 18.4 µM | GI50 [7]: 10 µM | TGI [7]: 28.1 µM | GI50 [8]: 0.0495 µM | TGI [8]: 0.189 µM | GI50 [9]: 17.6 µM | TGI [9]: 57.1 µM | GI50 [10]: 12.7 µM | TGI [10]: 49.4 µM | GI50 [11]: 1.12 µM | TGI [11]: 20 µM | GI50 [12]: 0.0452 µM | TGI [12]: 0.221 µM | GI50 [13]: 3.11 µM | TGI [13]: 26.2 µM | GI50 [14]: 12 µM | TGI [14]: > 60.4 µM | GI50 [15]: 0.575 µM | TGI [15]: > 53.9 µM | GI50 [16]: 5.81 µM | TGI [16]: 28.6 µM | GI50 [17]: 0.0722 µM | TGI [17]: 0.337 µM | GI50 [18]: 10.3 µM | TGI [18]: 34.3 µM | GI50 [19]: 0.0915 µM | TGI [19]: 0.232 µM | GI50 [20]: 2.02 µM | TGI [20]: 13.7 µM | GI50 [21]: 0.0644 µM | TGI [21]: 0.297 µM | GI50 [22]: 0.134 µM | TGI [22]: 0.776 µM | GI50 [23]: 0.434 µM | TGI [23]: 13.2 µM | GI50 [24]: 13.1 µM | TGI [24]: > 81.1 µM | GI50 [25]: 2.99 µM | TGI [25]: 21.2 µM | GI50 [26]: 13 µM | TGI [26]: 28.5 µM | GI50 [27]: 2.27 µM | TGI [27]: 34.6 µM | GI50 [28]: 0.202 µM | TGI [28]: 10 µM | GI50 [29]: 0.0861 µM | TGI [29]: 0.438 µM | GI50 [30]: 21.5 µM | TGI [30]: > 75.1 µM | GI50 [31]: 2.18 µM | TGI [31]: 21.6 µM | GI50 [32]: 10.4 µM | TGI [32]: 47.1 µM | GI50 [33]: 2.74 µM | TGI [33]: 18.2 µM | GI50 [34]: 0.0464 µM | TGI [34]: 11.3 µM | GI50 [35]: 11.7 µM | TGI [35]: > 60.4 µM | GI50 [36]: 3.01 µM | TGI [36]: 16.4 µM | GI50 [37]: 15.2 µM | TGI [37]: 37 µM | GI50 [38]: 0.352 µM | TGI [38]: 15.9 µM | GI50 [39]: 0.119 µM | TGI [39]: 12.3 µM | GI50 [40]: 4.2 µM | TGI [40]: > 50.6 µM | GI50 [41]: 0.121 µM | TGI [41]: 0.582 µM | GI50 [42]: 20.3 µM | TGI [42]: 59 µM | GI50 [43]: 1.73 µM | TGI [43]: 5.99 µM | GI50 [44]: 5.75 µM | TGI [44]: 27.6 µM | GI50 [45]: 0.506 µM | TGI [45]: > 55.2 µM | GI50 [46]: 20.7 µM | TGI [46]: > 93.5 µM | GI50 [47]: 7.08 µM | TGI [47]: 22.3 µM | GI50 [48]: 0.295 µM | TGI [48]: 1.21 µM | GI50 [49]: 0.563 µM | TGI [49]: 15.1 µM | GI50 [50]: 1.08 µM | TGI [50]: 18.7 µM | GI50 [51]: 8.74 µM | TGI [51]: 26.4 µM | GI50 [52]: 17.7 µM | TGI [52]: > 60 µM | GI50 [53]: 1.9 µM | TGI [53]: 18.1 µM | GI50 [54]: 11.8 µM | TGI [54]: 25.4 µM | GI50 [55]: 1.41 µM | TGI [55]: 24.5 µM | GI50 [56]: 5.24 µM | TGI [56]: 18.8 µM | GI50 [57]: 8.19 µM | TGI [57]: 24.8 µM

CC1(C)N=C(N)N=C(N)N1c1ccc(CCCCc2ccc(S(=O)(=O)F)cc2)c(Cl)c1
GI50 [1]: 0.0862 µM | TGI [1]: > 61.2 µM | GI50 [2]: 0.929 µM | TGI [2]: 19.1 µM | GI50 [3]: 0.789 µM | TGI [3]: > 100 µM | GI50 [4]: 0.363 µM | TGI [4]: 19.5 µM | GI50 [5]: 0.454 µM | TGI [5]: 15.2 µM | GI50 [6]: 1.45 µM | TGI [6]: 23.7 µM | GI50 [7]: 12 µM | TGI [7]: 35.9 µM | GI50 [8]: 0.981 µM | TGI [8]: 18 µM | GI50 [9]: 0.051 µM | TGI [9]: 23.2 µM | GI50 [10]: 0.0493 µM | TGI [10]: 15.9 µM | GI50 [11]: 9.59 µM | TGI [11]: > 100 µM | GI50 [12]: 0.848 µM | TGI [12]: 20.3 µM | GI50 [13]: 0.181 µM | TGI [13]: 23.6 µM | GI50 [14]: 0.484 µM | TGI [14]: 17.5 µM | GI50 [15]: 0.0628 µM | TGI [15]: 17.9 µM | GI50 [16]: 0.884 µM | TGI [16]: 20.9 µM | GI50 [17]: 0.0592 µM | TGI [17]: 21.5 µM | GI50 [18]: 0.334 µM | TGI [18]: 17.9 µM | GI50 [19]: 0.626 µM | TGI [19]: 25.9 µM | GI50 [20]: 2.48 µM | TGI [20]: 20.7 µM | GI50 [21]: 0.124 µM | TGI [21]: 83.8 µM | GI50 [22]: 5.18 µM | TGI [22]: 22 µM | GI50 [23]: 0.0936 µM | TGI [23]: 16.4 µM | GI50 [24]: 0.107 µM | TGI [24]: 17.4 µM | GI50 [25]: 0.224 µM | TGI [25]: 19.3 µM | GI50 [26]: 0.391 µM | TGI [26]: 13.9 µM | GI50 [27]: 0.79 µM | TGI [27]: > 100 µM | GI50 [28]: 0.0399 µM | TGI [28]: 12.6 µM | GI50 [29]: 0.0559 µM | TGI [29]: 19.6 µM | GI50 [30]: 0.518 µM | TGI [30]: 21.4 µM | GI50 [31]: 0.514 µM | TGI [31]: 18.9 µM | GI50 [32]: 45 µM | TGI [32]: > 100 µM | GI50 [33]: 7.97 µM | TGI [33]: 25.5 µM | GI50 [34]: 0.0483 µM | TGI [34]: 18.9 µM | GI50 [35]: 9.27 µM | TGI [35]: 32.1 µM | GI50 [36]: 0.0566 µM | TGI [36]: 15.3 µM | GI50 [37]: 0.419 µM | TGI [37]: 16.7 µM | GI50 [38]: 0.636 µM | TGI [38]: 18.2 µM | GI50 [39]: 0.198 µM | TGI [39]: 14.2 µM | GI50 [40]: 0.593 µM | TGI [40]: > 100 µM | GI50 [41]: 2.05 µM | TGI [41]: 15.2 µM | GI50 [42]: 0.0666 µM | TGI [42]: 16.6 µM | GI50 [43]: 0.34 µM | TGI [43]: 18.7 µM | GI50 [44]: 0.452 µM | TGI [44]: 18.4 µM | GI50 [45]: 0.0527 µM | TGI [45]: 14.7 µM | GI50 [46]: 0.773 µM | TGI [46]: 19.1 µM | GI50 [47]: 0.189 µM | TGI [47]: 16.2 µM | GI50 [48]: 0.851 µM | TGI [48]: 17.4 µM | GI50 [49]: 5.56 µM | TGI [49]: 26.1 µM | GI50 [50]: 0.334 µM | TGI [50]: > 44.8 µM | GI50 [51]: 1.76 µM | TGI [51]: 21.2 µM | GI50 [52]: 0.225 µM | TGI [52]: 19.5 µM | GI50 [53]: 0.345 µM | TGI [53]: 12.5 µM | GI50 [54]: 0.85 µM | TGI [54]: 20.8 µM | GI50 [55]: 0.283 µM | TGI [55]: 13 µM | GI50 [56]: 0.0723 µM | TGI [56]: 15.3 µM | GI50 [57]: 9.61 µM | TGI [57]: 22.5 µM
